Measurements reported in PMC11640089, “JRM-28, a Novel HDAC2 Inhibitor, Upregulates Plasticity-Associated Proteins in Hippocampal Neurons and Enhances Morphological Plasticity via Activation of CREB: Implications for Alzheimer’s Disease” (Cells, 2024).
pIC50: −log10 of the molar value.

How the values were obtained:
HDAC1 = target: T1, HDAC1 (Homo sapiens, UniProt Q13547); assay: Fluorimetric HDAC inhibition assay, HDAC1; type: biochemical; details: reduced with DTT
T1 construct: purchased BPS Bioscience 50051
Protocol: The inhibition of HDAC1, 2, 3, and 6 by JRM-28 was fluorometrically measured using the HDAC Fluorogenic Assay Kit (Catalog# 50034) by BPS bioscience. Purified recombinant human HDAC1 (Cat# 50051), HDAC3 (Cat# 50003), and HDAC6 (Cat# 50056) were also obtained from BPS Bioscience. The enzyme inhibition assay was performed according to the manufacturer’s protocol. […] Purified recombinant HDAC2 (supplied with the fluorogenic kit) was diluted to 6 ng/µL (5 µL/well with the supplied HDAC assay buffer). HDAC 1, 3, and 6 were also diluted to the optimized concentration (5 µL/well) with the HDAC assay buffer. The activity of JRM-28 was measured along with DTT control and DMSO as blank. After adding 5 µL of the diluted HDAC enzymes in designated wells, the 96-well plate (supplied with the kit) was incubated at 37 °C. Then, the reaction was initiated by adding 5 µL of diluted HDAC substrate to each well, followed by another incubation at 37 °C for 30 min. Next, 50 µL of the developer reagent was added to each well and incubated at room temperature for another 15 min. Finally, fluorescence was measured by a microplate absorbance spectrophotometer (PerkinElmer Enspire 2300 Multilabel Multimode Microplate Reader) with an excitation at λ = 485 nm and detection at λ = 528 nm.

iPSC-derived AD neurons = assay: NMDA/AMPA-driven calcium entry assay in iPSC-derived AD neurons; type: cell-based, human
Protocol: Mouse primary hippocampal neurons and AD neurons were loaded with Fluo4-fluorescence conjugated calcium dye (Invitrogen Molecular Probes, Cat #F10471) and incubated at 37 °C for 60 min, as described before. Briefly, fluorescence excitation and emission spectra were recorded in a Perkin–Elmer Victor X2 Fluorimetric Spectrometer (Versiti Blood Center, Wauwatosa, WI, USA) in the presence of 50 μM NMDA and AMPA solutions. The recording was performed with 100 repeats at 0.1 ms intervals. The oscillogram was generated with the help of Parkin Elmer 2030 software that was connected to the Victor X2 calcium recorder unit. The real-time calcium noise graph was generated as a kinetic chart plotted on a linear scale.

[1] = test system: SHSY5Y human neuronal cells; assay: MAP2 immunofluorescence/immunoblot, dendritic morphogenesis in SHSY5Y neurons; type: cell-based
Protocol: Primary neuronal cell culture was performed based on a protocol approved by the Institutional Animal Care and Use Committee (IACUC) of the University of Wisconsin-Milwaukee, Milwaukee, WI-53211, and by the guidelines set by the National Institute of Health. Embryonic day 18 (E18) fetuses were harvested, and hippocampal tissue was dissected from brains and then processed for single cell culture in poly-D-lysine-coated plates, as discussed elsewhere. Neuronal cells were maintained with B-27^TM-plus-supplemented complete neurobasal media for 7–10 days until fully differentiated. After that, the treatment with JRM-28 was performed. SHSY5Y cells were grown, maintained, and passaged with complete DMEM media (a bottle of DMEM supplemented with 10% FBS, 2 mM L-glutamine, and 100 units/mL antibiotics); otherwise, for neuronal differentiation study, SHSY5Y was seeded with complete neurobasal medium. For making AD neurons, commercially purchased (Axol Bioscience Ltd.) A246E psen1 neural stem cells (NSCs) were maintained with KnockOut^TM DMEM/F12 media supplemented with StemPro^TM Neural Supplement, bFGF, EGF, 2 mM GlutMAX^TM supplement, and 10 mL/L antibiotic-antimycotic solution. These […] NSCs were grown in a […] cell culture flask coated with Geltrex^TM matrix until fully confluent and then detached by Accutase, centrifuged, washed, and plated in a poly-D-lysine-coated plate supplemented with complete neurobasal media for neuronal differentiation. After one week, when neurons were differentiated, JRM-28 treatment was conducted.
Immunofluorescence analysis was performed as described earlier. Briefly, cells cultured on coverslip contained in six-well plates (Lab-Tek II) were fixed with 4% paraformaldehyde for 20 min followed by two rinses in TBST. Samples were incubated in a 1:1 solution of TBST and blocking buffer containing rabbit anti-NR2A (1:250), anti-GluR1 (1:250), ant-HDAC2 (1:250), anti-CREB (1:250), and anti-MAP2 (1:250) for 2 h at 37 °C. After three washes in PBST (15 min each), slides were further incubated with FIT-C and TRIT-C-conjugated secondary antibodies. […]

SHSY5Y cells = assay: Lactate dehydrogenase (LDH) release cytotoxicity assay; type: cell-based, human; details: 24 h
Protocol: Lactate dehydrogenase (LDH) cell cytotoxicity assay was performed per the manufacturer’s protocol. Briefly, SHSY5Y cells were grown in a 96-well plate with up to 70% confluency followed by treatment with increasing doses of JRM-28 under serum-free conditions. Serially diluted JRM-28 was used in a concentration range from 75 nM to 50 μM. As a control, serially diluted DMSO controls were added. After 24 h, supernatants were harvested by a multi-channel pipette and then assessed for LDH release with CyQUANT™ LDH Cytotoxicity Assay Kit. Briefly, 50 μL of supernatant was incubated with an equal volume of the working reaction mixture (generated after combining the 600 µL of assay buffer Stock Solution with the 11.4 mL of Substrate Stock substrate mix), incubated at room temperature for 30 min protected from light, terminated by 50 μL of stop solution, and then measured at 490 nm using a microplate absorbance spectrophotometer (Perkin Elmer Enspire 2300 Multilabel Multimode Microplate Reader). The percentage of cytotoxicity was determined following the formula provided with the LDH assay kit and then converted to relative cell cytotoxicity.

NR2A and GluR1 = NR2A and GluR1 immunofluorescence in E18 mouse hippocampal neurons; type: cell-based; details: 5 µM
Protocol: Immunofluorescence analysis was performed as described earlier. Briefly, cells cultured on coverslip contained in six-well plates (Lab-Tek II) were fixed with 4% paraformaldehyde for 20 min followed by two rinses in TBST. Samples were incubated in a 1:1 solution of TBST and blocking buffer containing rabbit anti-NR2A (1:250), anti-GluR1 (1:250), ant-HDAC2 (1:250), anti-CREB (1:250), and anti-MAP2 (1:250) for 2 h at 37 °C. After three washes in PBST (15 min each), slides were further incubated with FIT-C and TRIT-C-conjugated secondary antibodies. For negative controls, a set of culture slides was incubated under similar conditions with secondary antibodies and without the primary antibodies (Table 3). The samples were mounted and observed under an Accuscope fluorescent microscope. The images were captured and merged in CaptaVision^TM imaging software.

T1 sequence (Q13547 whole entry): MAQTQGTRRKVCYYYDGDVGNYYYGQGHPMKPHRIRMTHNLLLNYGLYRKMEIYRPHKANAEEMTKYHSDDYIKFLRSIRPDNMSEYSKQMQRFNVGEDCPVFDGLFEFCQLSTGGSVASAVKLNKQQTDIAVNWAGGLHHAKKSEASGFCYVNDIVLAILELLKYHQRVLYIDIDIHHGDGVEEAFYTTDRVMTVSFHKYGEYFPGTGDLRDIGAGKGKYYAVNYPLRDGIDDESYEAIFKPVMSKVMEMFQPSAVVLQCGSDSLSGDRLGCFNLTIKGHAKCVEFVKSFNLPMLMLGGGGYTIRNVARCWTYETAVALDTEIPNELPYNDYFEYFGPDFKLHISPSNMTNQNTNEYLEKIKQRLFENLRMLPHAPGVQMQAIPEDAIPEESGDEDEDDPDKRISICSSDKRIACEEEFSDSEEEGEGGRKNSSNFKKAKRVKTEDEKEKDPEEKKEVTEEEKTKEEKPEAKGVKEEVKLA

CN(C(=O)CC(O)/C=C/CCSS(=O)(=O)CC/C=C/C(O)CC(=O)N(C)c1ccccc1)c1ccccc1 (stereo not drawn) [JRM-28, S-((E)-5-hydroxy-7-(methyl(phenyl)amino)-7-oxohept-3-en-1-yl) (E)-5-hydroxy-7-(methyl(phenyl)amino)-7-oxohept-3-ene-1-sulfonothioate]
pIC50 (HDAC1): 6.45 | Hill coefficient HDAC1 (fluorimetric) (HDAC1; listed as JRM-28 (JRM-28a+28b)): −4.582 | AMPA-driven calcium influx (iPSC-derived AD neurons; 5 µM): strong AMPA-driven calcium influx | NMDA-driven calcium entry (iPSC-derived AD neurons; 5 µM): significantly high | concentration of maximum NMDA-driven calcium entry (iPSC-derived AD neurons; 2, 5, and 10 µM tested): 10 µM | NMDA- and AMPA-induced calcium entry after creb siRNA (iPSC-derived AD neurons; creb siRNA-transfected AD neurons): strongly attenuated | dendritic length / dendritic morphogenesis ([1]; 5 µM versus control, n = 200 per group): augmented the dendritic morphogenesis | dendritic pruning (MAP2-ir appendages) ([1]; 5 µM, 48 h (legend: 24 h)): significantly stimulated dendritic pruning | MAP2 expression (immunoblot) ([1]; 5 and 10 µM): upregulated the expressions of MAP2 | LDH release (SHSY5Y cells; 30 µM and 50 µM): significantly induced LDH release | LDH release (SHSY5Y cells; concentrations lower than 30 µM): but not lower concentrations of JRM-28, significantly induced LDH release | expressions of NR2A and GluR1 (IF, MFI) (NR2A and GluR1): upregulated
